This is an account of results in ChEMBL document CHEMBL5214933, “Discovery of Selenium-Containing STING Agonists as Orally Available Antitumor Agents” (J Med Chem, 2022).

SMILES strings stand for the structures. Values after ≈ are worked out from the molar mass of the structure shown. Active and inactive are the calls of the source. No cut-off for these calls is given here.

The ΔTm is the change in melting temperature against a reference sample. The solubility (thermodynamic) is solubility found after equilibrating the solid with the medium. For orientation: logP means a log measure of how a compound divides between an organic and an aqueous phase. A low value points to a more hydrophilic compound. The inhibition is the relative decrease from the control value, in per cent. In general, Cmax refers to the highest concentration seen after dosing. One may read the AUC(0-inf) as total exposure, with the tail of the curve extrapolated. Higher therefore signals high exposure. The half-life is how long it takes for the measured level to halve. Higher therefore signals slow loss. Broadly, the CL/F is clearance divided by bioavailability, as obtained after extravascular dosing. By clearance is commonly meant the volume of plasma or blood freed of the substance per unit of time. Low readings indicate a low capacity for elimination, high ones a high capacity for elimination. One may read the bioavailability as the share of a dose that reaches the circulation, judged against a reference dose that is usually intravenous. In general, EC50 refers to the midpoint of the concentration-response curve.

In series [1] the target is T1, Stimulator of interferon genes protein (Homo sapiens, UniProt Q86WV6). Put plainly: Agonist activity at STING in human THP-1 cells harboring IRF-inducible luciferase reporter construct assessed as fold change in ISG signalling at 20 uM incubated for 12 hrs by Quanti-luc reagent based assay relative to control. The series is classed as cell-based. The note with it: filed as agonist.
T1 sequence (Q86WV6 whole entry): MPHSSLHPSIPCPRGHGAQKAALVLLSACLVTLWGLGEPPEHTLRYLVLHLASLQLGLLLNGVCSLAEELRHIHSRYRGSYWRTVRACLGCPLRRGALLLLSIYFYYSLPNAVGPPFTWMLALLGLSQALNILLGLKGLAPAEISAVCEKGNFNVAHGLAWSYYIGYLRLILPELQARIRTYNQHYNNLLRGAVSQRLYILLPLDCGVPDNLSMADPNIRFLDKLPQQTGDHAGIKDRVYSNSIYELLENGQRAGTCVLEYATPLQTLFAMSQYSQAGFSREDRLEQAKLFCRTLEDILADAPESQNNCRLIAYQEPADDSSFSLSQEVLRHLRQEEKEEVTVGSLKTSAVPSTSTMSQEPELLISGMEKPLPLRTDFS

For series [2], the system named is Stimulator of interferon genes protein (Homo sapiens), Q86WV6 [UNDEFINED MUTATION]. Put plainly: Binding affinity to recombinant human STING H232 variant expressed in Escherichia coli BL21 (DE3) assessed as thermal stabilization by measuring change in melting temperature at 2 mM incubated for 30 mins by SYPRO orange dye based differential scanning fluorimetry assay. A general note: DSF heats the sample and reads unfolding from a dye or from intrinsic fluorescence.
Stimulator of interferon genes protein (Homo sapiens), Q86WV6 [UNDEFINED MUTATION], sequence (Q86WV6 whole entry, looked up, stated change not applied): as the sequence (Q86WV6 whole entry) above

The nature of series [3]: Aqueous solubility of compound at 3 mg incubated for 24 hrs under shaking condition by RP-HPLC analysis. In kind it is physicochemical. The note with it: water.
The nature of series [4]: Solubility of compound in PBS buffer at pH 7.4 at 3 mg incubated for 24 hrs under shaking condition by RP-HPLC analysis. In kind it is physicochemical.
Series [5] is described as follows: Lipophilicity, logP of compound by RP-HPLC analysis. The series is classed as physicochemical.
The nature of series [6]: Permeability of the compound in PBS buffer incubated for 5 hrs by PAMPA-based LC-MS/MS analysis. In kind it is ADME. The note with it: read-out: permeability. A general note: PAMPA measures passive passage across an artificial lipid membrane.
Series [7] is described as follows: Protein binding in plasma (unknown origin) assessed as unbound fraction at 2 uM incubated for 4 hrs under shaking condition by rapid equilibrium dialysis method. The series is classed as ADME, cell-free. (In equilibrium dialysis free small molecules cross a membrane that holds back macromolecules.)
Series [8] is described as follows: Stability in rat liver microsomes assessed as parent compound remaining at 1 uM incubated for 2 hrs in presence of NADPH by LC-MS/MS analysis. In kind it is ADME, Microsome. The note with it: read-out: Stability.
Series [9] in a line: Stability in human plasma assessed as parent compound remaining at 1 uM incubated for 24 hrs in presence of NADPH by LC-MS/MS analysis. In kind it is ADME, cell-free. Conditions: read-out: Stability.
The next series deals with CYP3A4 (Homo sapiens, UniProt P08684). The series can be described thus: Inhibition of recombinant CYP3A4 (unknown origin) using midazolam as substrate assessed as reduction in substrate hydroxylation at 10 uM incubated for 5 mins in presence of NADPH by LC-MS/MS analysis relative to control. In kind it is ADME. Conditions: recombinant CYP3A4, probe midazolam.
CYP3A4, sequence (P08684 whole entry): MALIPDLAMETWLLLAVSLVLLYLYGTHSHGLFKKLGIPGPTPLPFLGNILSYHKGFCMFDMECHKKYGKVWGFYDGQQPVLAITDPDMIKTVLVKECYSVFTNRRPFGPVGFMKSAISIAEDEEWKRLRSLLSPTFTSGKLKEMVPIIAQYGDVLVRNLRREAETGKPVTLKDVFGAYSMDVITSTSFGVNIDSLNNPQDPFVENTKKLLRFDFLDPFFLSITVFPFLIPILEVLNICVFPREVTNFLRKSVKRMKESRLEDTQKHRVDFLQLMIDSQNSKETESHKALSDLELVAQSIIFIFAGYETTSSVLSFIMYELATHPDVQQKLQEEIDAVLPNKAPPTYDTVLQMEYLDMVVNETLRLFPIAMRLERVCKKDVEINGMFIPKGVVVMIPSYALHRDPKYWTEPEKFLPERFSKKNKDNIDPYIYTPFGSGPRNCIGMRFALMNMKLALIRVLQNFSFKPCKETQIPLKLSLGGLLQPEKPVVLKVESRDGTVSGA
The target in a further series is hERG (Homo sapiens, UniProt Q12809). Put plainly: Inhibition of hERG expressed in HEK293 cells at 10 uM incubated for 5 mins by QPatch automated patch-clamp technique relative to control. In kind it is toxicity, cell-based. Conditions: HEK293 cells that express hERG.
hERG, sequence (Q12809 whole entry): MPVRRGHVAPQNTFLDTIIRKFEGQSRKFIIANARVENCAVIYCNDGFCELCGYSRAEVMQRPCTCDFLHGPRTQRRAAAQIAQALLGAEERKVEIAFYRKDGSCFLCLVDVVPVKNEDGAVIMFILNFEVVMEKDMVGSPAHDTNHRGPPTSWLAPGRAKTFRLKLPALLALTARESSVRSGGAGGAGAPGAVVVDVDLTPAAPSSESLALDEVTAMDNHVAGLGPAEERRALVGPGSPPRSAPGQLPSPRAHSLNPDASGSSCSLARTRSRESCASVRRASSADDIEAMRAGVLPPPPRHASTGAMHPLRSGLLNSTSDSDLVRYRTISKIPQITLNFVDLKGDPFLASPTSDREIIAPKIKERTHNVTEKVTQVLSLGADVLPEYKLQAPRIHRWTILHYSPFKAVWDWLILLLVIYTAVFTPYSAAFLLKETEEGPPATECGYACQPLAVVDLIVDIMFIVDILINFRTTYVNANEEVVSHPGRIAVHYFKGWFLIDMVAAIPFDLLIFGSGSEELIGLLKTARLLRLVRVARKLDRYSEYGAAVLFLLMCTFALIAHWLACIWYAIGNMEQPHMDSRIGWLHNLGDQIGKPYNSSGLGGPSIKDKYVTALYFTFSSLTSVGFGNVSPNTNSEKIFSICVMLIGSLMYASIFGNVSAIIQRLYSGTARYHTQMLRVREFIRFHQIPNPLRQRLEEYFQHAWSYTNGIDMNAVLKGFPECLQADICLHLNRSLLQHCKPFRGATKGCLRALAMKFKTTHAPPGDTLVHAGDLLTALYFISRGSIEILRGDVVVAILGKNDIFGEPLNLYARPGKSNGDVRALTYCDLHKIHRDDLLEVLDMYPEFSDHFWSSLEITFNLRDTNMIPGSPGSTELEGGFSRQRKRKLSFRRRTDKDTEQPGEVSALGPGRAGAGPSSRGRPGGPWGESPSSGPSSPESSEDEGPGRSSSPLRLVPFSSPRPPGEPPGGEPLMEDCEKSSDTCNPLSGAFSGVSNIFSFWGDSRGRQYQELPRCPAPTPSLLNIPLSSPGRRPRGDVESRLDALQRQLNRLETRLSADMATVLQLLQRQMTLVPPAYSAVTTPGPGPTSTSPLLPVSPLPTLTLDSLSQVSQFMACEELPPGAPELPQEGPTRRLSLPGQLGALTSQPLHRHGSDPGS
Series [10] can be described thus: Cmax in Sprague-Dawley rat at 50 mg/kg, po measured for 1440 mins by LC-MS/MS analysis. In kind it is ADME, organism-based. More on the design: time 1440 min, dose 50 mg/kg, route po. Conditions: in vivo.
The nature of series [11]: AUC (0 to infinity) in Sprague-Dawley rat at 50 mg/kg, po measured for 1440 mins by LC-MS/MS analysis. In kind it is ADME, organism-based. Set-up: time 1440 min, dose 50 mg/kg, route po. Conditions: in vivo.
Series [12] in a line: AUC (0 to infinity) in Sprague-Dawley rat at 5 mg/kg, iv measured for 1440 mins by LC-MS/MS analysis. In kind it is ADME, organism-based. Set-up: dose 5 mg/kg, time 1440 min, route iv. The note with it: in vivo.
The nature of series [13]: Half life in Sprague-Dawley rat at 50 mg/kg, po measured for 1440 mins by LC-MS/MS analysis. In kind it is ADME, organism-based. The note with it: in vivo.
Series [14] can be described thus: Half life in Sprague-Dawley rat at 5 mg/kg, iv measured for 1440 mins by LC-MS/MS analysis. The series is classed as ADME, organism-based. Conditions: in vivo.
Series [15] in a line: Volume of distribution at steady state in Sprague-Dawley rat at 50 mg/kg, po measured for 1440 mins by LC-MS/MS analysis. Conditions: in vivo, 24 h. The series is classed as ADME, organism-based.
Series [16] in a line: Volume of distribution at steady state in Sprague-Dawley rat at 5 mg/kg, iv measured for 1440 mins by LC-MS/MS analysis. The series is classed as ADME, organism-based. The note with it: in vivo, read-out: Vdss.
Series [17] in a line: Clearance in Sprague-Dawley rat at 50 mg/kg, po measured for 1440 mins by LC-MS/MS analysis. In kind it is ADME, organism-based. Conditions: in vivo.
Series [18] can be described thus: Clearance in Sprague-Dawley rat at 5 mg/kg, iv measured for 1440 mins by LC-MS/MS analysis. In kind it is ADME, organism-based. Conditions: in vivo.
Series [19] can be described thus: Oral bioavailability in Sprague-Dawley rat at 50 mg/kg measured for 1440 mins by LC-MS/MS analysis. In kind it is ADME, organism-based. Conditions: in vivo.
Series [20] concerns 4T1. The series can be described thus: Antitumor activity against mouse 4T1 cells implanted in naive BALB/c mouse assessed as increase in Ki67-positive CD4 T cells in tumor at 80 mg/kg, po administered once every 5 days by FACS analysis (reference value: 4.4%). Conditions: time 5 day. In kind it is functional.
Series [21] has as its system 4T1. The series can be described thus: Antitumor activity against mouse 4T1 cells implanted in naive BALB/c mouse assessed as increase in Ki67-positive CD8 T cells in tumor at 80 mg/kg, po administered once every 5 days by FACS analysis (reference value: 14%). In kind it is functional. Conditions: time 5 day.
Series [22] deals with Stimulator of interferon genes protein (Homo sapiens), Q86WV6 [UNDEFINED MUTATION]. Put plainly: Binding affinity to recombinant human STING R232 variant expressed in Escherichia coli BL21 (DE3) assessed as thermal stabilization by measuring change in melting temperature at 0.1 mM incubated for 30 mins by SYPRO orange dye based differential scanning fluorimetry assay.
For series [23] the test system is unchanged. Put plainly: Binding affinity to recombinant human STING AQ variant expressed in Escherichia coli BL21 (DE3) assessed as thermal stabilization by measuring change in melting temperature at 0.1 mM incubated for 30 mins by SYPRO orange dye based differential scanning fluorimetry assay.
The target of series [24] is T1, Stimulator of interferon genes protein. The series can be described thus: Agonist activity at STING in human THP-1 cells harboring IRF-inducible luciferase reporter construct assessed as increase in ISG signalling incubated for 12 hrs by Quanti-luc reagent based assay. The series is classed as cell-based.
Series [25] shares this target. Put plainly: Agonist activity at STING in cGAS knockout human THP-1 cells harboring IRF-inducible luciferase reporter construct assessed as increase in ISG signalling at 20 uM incubated for 12 hrs by Quanti-luc reagent based assay. The series is classed as cell-based. Conditions: filed as agonist.
For series [26], the target named is T2, Stimulator of interferon genes protein (Mus musculus) (UniProt Q3TBT3).
T2 sequence (whole entry): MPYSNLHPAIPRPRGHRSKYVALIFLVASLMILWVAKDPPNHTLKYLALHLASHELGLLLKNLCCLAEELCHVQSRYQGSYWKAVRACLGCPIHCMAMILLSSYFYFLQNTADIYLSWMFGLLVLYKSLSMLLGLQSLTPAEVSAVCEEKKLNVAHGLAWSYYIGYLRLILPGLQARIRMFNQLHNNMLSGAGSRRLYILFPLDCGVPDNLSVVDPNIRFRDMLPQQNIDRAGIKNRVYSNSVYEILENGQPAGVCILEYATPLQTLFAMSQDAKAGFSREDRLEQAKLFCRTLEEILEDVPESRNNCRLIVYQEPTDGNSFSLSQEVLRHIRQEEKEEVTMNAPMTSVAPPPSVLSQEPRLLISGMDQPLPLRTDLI
The series can be described thus: Agonist activity at STING in mouse RAW264.7 cells harboring IRF-inducible luciferase reporter construct assessed as increase in ISG signalling at 20 uM incubated for 12 hrs by Quanti-luc reagent based assay. The series is classed as cell-based. The note with it: filed as agonist.

As to `COc1cc2cc(C(=O)C3CC3C(=O)O)[se]c2cc1OC` (racemic), the fold change (FC) in series [1] was 7. The shift in melting temperature (ΔTm) in [2] was 6.2 °C.
With `COc1ccc2cc(C(=O)CC(C)C(=O)O)[se]c2c1` (racemic), the ΔTm in [2] is -0.1 °C.
On to `CCC(CC(=O)c1cc2cc(OC)c(OC)cc2o1)C(=O)O` (racemic), for which, in [2], the ΔTm was -0.1 °C.
The same measure, in the same setting: the same measure for `COc1ccc2[se]c(C(=O)CC(C)C(=O)O)cc2c1` (racemic): -0.3 °C; for `COc1cc2cc(C(=O)CC(C)C(N)=O)[se]c2cc1OC` (racemic): -0.8 °C.
With `CCCC(CC(=O)c1cc2cc(OC)c(OC)cc2[se]1)C(=O)O` (racemic), the fold change (FC) in [1] turned out to be 14. For the same compound, in [2], the ΔTm is -1.2 °C.
Taken in the same sequence, the figures for `COCC(CC(=O)c1cc2cc(OC)c(OC)cc2[se]1)C(=O)O` (racemic) were 7 and 0.9 °C.
For the compound `CCC(CC(=O)c1cc2cc(OC)c(OC)cc2s1)C(=O)O` (racemic), the fold change (FC) in series [1] was 18. In [2], the ΔTm came to 4.7 °C.
Taken in the same sequence, the figures for `COc1cc2cc(C(=O)C3CCC3C(=O)O)[se]c2cc1OC` (racemic) were 24 and 9.1 °C.
Turning to `CC(CC(=O)c1cc2cc3c(cc2[se]1)OCO3)C(=O)O` (racemic), the ΔTm in series [2] is -0.5 °C.
Consider `CCC(CC(=O)c1cc2cc(OC)c(OC)cc2[se]1)C(=O)O` (racemic), for which the fold change (FC) in [1] is 27. For the same compound, the ΔTm in [2] was 4.5 °C.
For `COc1cc2cc(C(=O)CCC(=O)O)sc2cc1OC`, the solubility (thermodynamic) at 24 h in series [3] was determined as 6 µg/mL (≈ 20.4 µM); in series [4], 300 µg/mL (≈ 1020 µM). The compound also came in with a logP in series [5] of 1.5. Moreover, the Papp at 5 h in [6] worked out at 1.7 ×10⁻⁶ cm/s. Further, the Fu in [7] was found to be 0.19%. The remaining at 2 h, 1 µM in [8] is 87%. Besides, the remaining at 24 h, 1 µM in series [9] amounted to 100%. For the same compound, the inhibition at 5 min, 10 µM at CYP3A4 was found to be 7.59%; against hERG, 0.86%. The same compound had a Cmax in series [10] of 23300 ng/mL. Also, the results for the area under the curve AUC(0-inf) in [11] and in series [12] were 56800 ng·h/mL and 9800 ng·h/mL, respectively. The half-life is 1.65 h in series [13] and 1.71 h in [14]. Further, the Vdss in series [15] is 2.18 L/kg. In addition, the Vd in series [16] worked out at 1.28 L/kg. This compound also gave a CL/F in series [17] of 15.2 mL/min/kg. In addition, the clearance in series [18] was 8.5 mL/min/kg. Moreover, the bioavailability in series [19] is 58%. Further, the Activity was determined as 5.5% in the series on 4T1 [20] and 7.7% in the series with 4T1 [21]. Moreover, the fold change (FC) in series [1] turned out to be 32. Also, the ΔTm in series [2] worked out at 3.9 °C; in [22], 9.1 °C; in series [23], 23.3 °C.
As to `COc1cc2cc(C(=O)CC(C(=O)O)C(C)C)[se]c2cc1OC` (racemic), in series [1], the fold change (FC) worked out at 10. Further, the ΔTm in [2] is -1.9 °C.
`COc1cc2cc(C(=O)CC(C)C(=O)O)[se]c2cc1OC` (racemic): the fold change (FC) in series [1] stood at 15. In addition, the ΔTm in [2] was 2.7 °C. Further, the EC50 in series [24] was determined as 21.3 µM. Besides, the result in series [25] and in series [26] was Active.
In the case of `CCC(=O)C(C)CC(=O)c1cc2cc(OC)c(OC)cc2[se]1` (stereo not given), in series [1], the fold change (FC) was found to be 15. Besides, the ΔTm in series [2] was -0.2 °C.
Consider `COc1cc2cc(C(=O)CCC(=O)O)[se]c2cc1OC`, for which the fold change (FC) in series [1] was found to be 2. In addition, in series [2], the ΔTm is -1.1 °C.
Taken in the same sequence, the figures for `COc1cc2cc(C(=O)CC(C)(C)C(=O)O)[se]c2cc1OC` were 5 and -1.5 °C.
